Measured values from patent US6355799B1, “Substituted benzene compounds, process for their preparation, and herbicidal and defoliant compositions containing them” (ISK Americas Incorporated, priority 1997, dated 2002).

Legend:
Assay type in all cases: in vivo
[1] = test system: velvetleaf (Abutilon theophrasti, ABUTH); assay: Pre-emerge test, greenhouse herbicide activity screening; conditions: pre-emerge, rated 14 days after application, 0 = no damage, 100 = complete death
Outline: (§1)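 Plants grown in 10 cm pots of sandy loam mix received acetone-dissolved compounds through a moving flat-fan nozzle. Doses ranged from 15 to 1000 g ai/ha. Pre-emerge pots were seeded one day earlier, post-emerge pots 8–21 days earlier. Fourteen days on, each pot was graded 0–100 for damage.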

[2] = test system: sicklepod (Cassia obtusifolia, CASOB); assay: as above; conditions: pre-emerge, rated 14 days after application, 0 = no damage, 100 = complete death
Outline: as §1

[3] = test system: common ragweed (Ambrosia artemisizfolia L., AMBEL); assay: as above; conditions: pre-emerge, rated 14 days after application, 0 = no damage, 100 = complete death
Outline: as §1

[4] = test system: large crabgrass (Digitaria sanguinalis, DIGSA); assay: as above; conditions: pre-emerge, rated 14 days after application, 0 = no damage, 100 = complete death
Outline: as §1

[5] = test system: johnsongrass (Sorghum halepense, SORHA); assay: as above; conditions: pre-emerge, rated 14 days after application, 0 = no damage, 100 = complete death
Outline: as §1

[6] = test system: barnyardgrass (Echinochloa crus-galli, ECHCG); assay: as above; conditions: pre-emerge, rated 14 days after application, 0 = no damage, 100 = complete death
Outline: as §1

[7] = test system: ivyleaf morningglory (Ipomoea hederacea, IPOHE); assay: as above; conditions: pre-emerge, rated 14 days after application, 0 = no damage, 100 = complete death
Outline: as §1

[8] = test system: green foxtail (Setaria viridis, SETVI); assay: as above; conditions: pre-emerge, rated 14 days after application, 0 = no damage, 100 = complete death
Outline: as §1

[9] = test system: lambsquarters (Chenopodium album, CHEAL); assay: as above; conditions: pre-emerge, rated 14 days after application, 0 = no damage, 100 = complete death
Outline: as §1

[10] = test system: field corn (Zea mays L., var. Dekalb 535, CORN); assay: Post-emerge test, crop safety; conditions: phytotoxicity rating 0-100 (0 no damage, 100 complete death), 14 days after application
Outline: (§2)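 Each test used a mechanized track sprayer delivering 187 l/ha of acetone solution at 15–1000 g ai/ha. Post-emerge foliage at 2–3 leaves was treated with added 0.25% v/v non-ionic surfactant and bottom-watered only. Injury was assessed on day 14, where 100 means total kill.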

[11] = test system: upland rice (Oryza sp., var. Tebonnet, RICE); assay: Post-emerge test, crop safety; conditions: phytotoxicity rating 0-100 (0 no damage, 100 complete death), 14 days after application
Outline: as §2

[12] = test system: redroot pigweed (Amaranthus retroflexus, AMARE); assay: Pre-emerge test, greenhouse herbicide activity screening; conditions: pre-emerge, rated 14 days after application, 0 = no damage, 100 = complete death
Outline: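 Visual ratings on a 0-100 scale (0 no damage, 100 all plants dead) were taken at 14 days after treatment. Rates of 15-1000 g ai/ha in acetone, 187 l/ha, were sprayed onto soil one day after planting (pre-emerge) or onto 2-3 leaf plants with 0.25% v/v surfactant (post-emerge).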

[13] = test system: velvetleaf (Abutilon theophrasti, ABUTH); assay: Post-emerge test, greenhouse herbicide activity screening; conditions: phytotoxicity rating 0-100 (0 no damage, 100 complete death), 14 days after application
Outline: (§3)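 Compounds in acetone were track-sprayed at 15–1000 g ai/ha: pre-emergence onto soil sown the previous day, then top-watered to incorporate and later bottom-watered; post-emergence onto 2–3 leaf plants with 0.25% v/v surfactant, bottom-watered only. Ratings on a 0–100 phytotoxicity scale were taken at day 14.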

[14] = test system: sicklepod (Cassia obtusifolia, CASOB); assay: as above; conditions: phytotoxicity rating 0-100 (0 no damage, 100 complete death), 14 days after application
Outline: as §3

[15] = test system: common ragweed (Ambrosia artemisizfolia L., AMBEL); assay: as above; conditions: phytotoxicity rating 0-100 (0 no damage, 100 complete death), 14 days after application
Outline: as §3

[16] = test system: large crabgrass (Digitaria sanguinalis, DIGSA); assay: as above; conditions: phytotoxicity rating 0-100 (0 no damage, 100 complete death), 14 days after application
Outline: as §3

[17] = test system: johnsongrass (Sorghum halepense, SORHA); assay: as above; conditions: phytotoxicity rating 0-100 (0 no damage, 100 complete death), 14 days after application
Outline: as §3

[18] = test system: redroot pigweed (Amaranthus retroflexus, AMARE); assay: as above; conditions: phytotoxicity rating 0-100 (0 no damage, 100 complete death), 14 days after application
Outline: as §3

[19] = test system: barnyardgrass (Echinochloa crus-galli, ECHCG); assay: as above; conditions: phytotoxicity rating 0-100 (0 no damage, 100 complete death), 14 days after application
Outline: as §3

[20] = test system: ivyleaf morningglory (Ipomoea hederacea, IPOHE); assay: as above; conditions: phytotoxicity rating 0-100 (0 no damage, 100 complete death), 14 days after application
Outline: as §3

[21] = test system: lambsquarters (Chenopodium album, CHEAL); assay: as above; conditions: phytotoxicity rating 0-100 (0 no damage, 100 complete death), 14 days after application
Outline: as §3

[22] = test system: field corn (Zea mays L., var. Dekalb 535, CORN); assay: Pre-emerge test, crop safety; conditions: pre-emerge, rated 14 days after application, 0 = no damage, 100 = complete death
Outline: (§4)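 Fourteen days after spraying, crop and weed injury was graded visually from 0, no effect, to 100, every plant dead. Test substances were dissolved in acetone and applied at 15–1000 g ai/ha with a flat-fan nozzle. Application was either pre-emergence, one day after sowing, or post-emergence at the 2–3 leaf stage.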

[23] = test system: upland rice (Oryza sp., var. Tebonnet, RICE); assay: Pre-emerge test, crop safety; conditions: pre-emerge, rated 14 days after application, 0 = no damage, 100 = complete death
Outline: as §4

COc1c(Cl)cc(F)c(-n2c(=O)cc(C(F)(F)F)n(C)c2=O)c1NC(=O)c1cccc(C)c1 [2-23]
95: Post-emerge Herbicidal Activity RICE (crop damage) ([11]; 250 g ai/ha) | Post-emerge Herbicidal Activity CASOB ([14]; 63 g ai/ha) | Pre-emerge crop damage RICE (phytotoxicity rating, scale 0-100) ([23]; 250 g ai/ha)
100: Pre-emerge Herbicidal Activity ABUTH (phytotoxicity rating, scale 0-100) ([1]; 63 g ai/ha) | Pre-emerge Herbicidal Activity ABUTH (phytotoxicity rating, scale 0-100) ([1]; 250 g ai/ha) | Pre-emerge Herbicidal Activity CASOB (phytotoxicity rating, scale 0-100) ([2]; 250 g ai/ha) | Pre-emerge Herbicidal Activity AMBEL (phytotoxicity rating, scale 0-100) ([3]; 63 g ai/ha) | Pre-emerge Herbicidal Activity AMBEL (phytotoxicity rating, scale 0-100) ([3]; 250 g ai/ha) | Pre-emerge Herbicidal Activity DIGSA (phytotoxicity rating, scale 0-100) ([4]; 250 g ai/ha) | Pre-emerge Herbicidal Activity ECHCG (phytotoxicity rating, scale 0-100) ([6]; 250 g ai/ha) | Pre-emerge Herbicidal Activity IPOHE (phytotoxicity rating, scale 0-100) ([7]; 63 g ai/ha) | Pre-emerge Herbicidal Activity IPOHE (phytotoxicity rating, scale 0-100) ([7]; 250 g ai/ha) | Pre-emerge Herbicidal Activity SETVI (phytotoxicity rating, scale 0-100) ([8]; 63 g ai/ha) | Pre-emerge Herbicidal Activity SETVI (phytotoxicity rating, scale 0-100) ([8]; 250 g ai/ha) | Pre-emerge Herbicidal Activity CHEAL (phytotoxicity rating, scale 0-100) ([9]; 63 g ai/ha) | Pre-emerge Herbicidal Activity CHEAL (phytotoxicity rating, scale 0-100) ([9]; 250 g ai/ha) | Pre-emerge Herbicidal Activity AMARE (phytotoxicity rating, scale 0-100) ([12]; 63 g ai/ha) | Pre-emerge Herbicidal Activity AMARE (phytotoxicity rating, scale 0-100) ([12]; 250 g ai/ha) | Post-emerge Herbicidal Activity ABUTH ([13]; 63 g ai/ha) | Post-emerge Herbicidal Activity ABUTH ([13]; 250 g ai/ha) | Post-emerge Herbicidal Activity CASOB ([14]; 250 g ai/ha) | Post-emerge Herbicidal Activity AMBEL ([15]; 250 g ai/ha) | Post-emerge Herbicidal Activity AMARE ([18]; 250 g ai/ha) | Post-emerge Herbicidal Activity IPOHE ([20]; 63 g ai/ha) | Post-emerge Herbicidal Activity IPOHE ([20]; 250 g ai/ha) | Pre-emerge crop damage CORN (phytotoxicity rating, scale 0-100) ([22]; 250 g ai/ha)
0: Post-emerge Herbicidal Activity DIGSA ([16]; 63 g ai/ha) | Post-emerge Herbicidal Activity ECHCG ([19]; 63 g ai/ha)
80: Pre-emerge Herbicidal Activity ECHCG (phytotoxicity rating, scale 0-100) ([6]; 63 g ai/ha) | Pre-emerge crop damage RICE (phytotoxicity rating, scale 0-100) ([23]; 63 g ai/ha)
40: Post-emerge Herbicidal Activity CORN (crop damage) ([10]; 63 g ai/ha)
50: Post-emerge Herbicidal Activity RICE (crop damage) ([11]; 63 g ai/ha) | Post-emerge Herbicidal Activity SORHA ([17]; 63 g ai/ha)
70: Pre-emerge Herbicidal Activity CASOB (phytotoxicity rating, scale 0-100) ([2]; 63 g ai/ha) | Pre-emerge Herbicidal Activity DIGSA (phytotoxicity rating, scale 0-100) ([4]; 63 g ai/ha) | Post-emerge Herbicidal Activity DIGSA ([16]; 250 g ai/ha) | Post-emerge Herbicidal Activity AMARE ([18]; 63 g ai/ha) | Post-emerge Herbicidal Activity CHEAL ([21]; 63 g ai/ha)
30: Post-emerge Herbicidal Activity ECHCG ([19]; 250 g ai/ha)
90: Pre-emerge Herbicidal Activity SORHA (phytotoxicity rating, scale 0-100) ([5]; 250 g ai/ha) | Post-emerge Herbicidal Activity CORN (crop damage) ([10]; 250 g ai/ha) | Post-emerge Herbicidal Activity AMBEL ([15]; 63 g ai/ha) | Post-emerge Herbicidal Activity SORHA ([17]; 250 g ai/ha) | Post-emerge Herbicidal Activity CHEAL ([21]; 250 g ai/ha)
60: Pre-emerge Herbicidal Activity SORHA (phytotoxicity rating, scale 0-100) ([5]; 63 g ai/ha) | Pre-emerge crop damage CORN (phytotoxicity rating, scale 0-100) ([22]; 63 g ai/ha)
